Data: patent US6610270B1, “In vivo determination of metabolic function for use in therapy management” (Xanthus Life Sciences, Inc., priority 1998, dated 2003)

Columns and labels:
[1] = target: T1, cystathionine synthase (CS) (Oryctolagus cuniculus, UniProt Q9N0V7); conditions: male, New Zealand, rabbit, in vivo, iv, 2 mg/kg
T1 sequence (Q9N0V7 1-551): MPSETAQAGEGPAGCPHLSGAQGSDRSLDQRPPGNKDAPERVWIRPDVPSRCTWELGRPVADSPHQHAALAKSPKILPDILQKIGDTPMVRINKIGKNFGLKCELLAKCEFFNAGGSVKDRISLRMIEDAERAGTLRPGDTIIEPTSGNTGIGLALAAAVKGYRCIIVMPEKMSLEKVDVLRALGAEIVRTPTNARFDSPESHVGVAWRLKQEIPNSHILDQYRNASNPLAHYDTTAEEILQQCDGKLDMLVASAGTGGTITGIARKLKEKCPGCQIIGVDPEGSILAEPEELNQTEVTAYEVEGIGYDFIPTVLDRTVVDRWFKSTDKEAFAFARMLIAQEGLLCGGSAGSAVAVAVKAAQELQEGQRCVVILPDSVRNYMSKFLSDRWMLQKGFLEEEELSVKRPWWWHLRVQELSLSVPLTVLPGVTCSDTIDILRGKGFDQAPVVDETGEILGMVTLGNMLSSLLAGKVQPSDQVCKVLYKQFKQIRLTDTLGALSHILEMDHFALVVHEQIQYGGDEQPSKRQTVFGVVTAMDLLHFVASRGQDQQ

[2] = target: T1, cystathionine synthase (CS); experiment: CS gateway enzyme breath test with homocysteine metaprobe, basal and after methionine load; conditions: n = 4
oxoprolinase [3] = target: T2, oxoprolinase (Rattus norvegicus, UniProt P97608); conditions: enzymatic assay; cited from earlier work
T2 sequence (P97608 1-1288): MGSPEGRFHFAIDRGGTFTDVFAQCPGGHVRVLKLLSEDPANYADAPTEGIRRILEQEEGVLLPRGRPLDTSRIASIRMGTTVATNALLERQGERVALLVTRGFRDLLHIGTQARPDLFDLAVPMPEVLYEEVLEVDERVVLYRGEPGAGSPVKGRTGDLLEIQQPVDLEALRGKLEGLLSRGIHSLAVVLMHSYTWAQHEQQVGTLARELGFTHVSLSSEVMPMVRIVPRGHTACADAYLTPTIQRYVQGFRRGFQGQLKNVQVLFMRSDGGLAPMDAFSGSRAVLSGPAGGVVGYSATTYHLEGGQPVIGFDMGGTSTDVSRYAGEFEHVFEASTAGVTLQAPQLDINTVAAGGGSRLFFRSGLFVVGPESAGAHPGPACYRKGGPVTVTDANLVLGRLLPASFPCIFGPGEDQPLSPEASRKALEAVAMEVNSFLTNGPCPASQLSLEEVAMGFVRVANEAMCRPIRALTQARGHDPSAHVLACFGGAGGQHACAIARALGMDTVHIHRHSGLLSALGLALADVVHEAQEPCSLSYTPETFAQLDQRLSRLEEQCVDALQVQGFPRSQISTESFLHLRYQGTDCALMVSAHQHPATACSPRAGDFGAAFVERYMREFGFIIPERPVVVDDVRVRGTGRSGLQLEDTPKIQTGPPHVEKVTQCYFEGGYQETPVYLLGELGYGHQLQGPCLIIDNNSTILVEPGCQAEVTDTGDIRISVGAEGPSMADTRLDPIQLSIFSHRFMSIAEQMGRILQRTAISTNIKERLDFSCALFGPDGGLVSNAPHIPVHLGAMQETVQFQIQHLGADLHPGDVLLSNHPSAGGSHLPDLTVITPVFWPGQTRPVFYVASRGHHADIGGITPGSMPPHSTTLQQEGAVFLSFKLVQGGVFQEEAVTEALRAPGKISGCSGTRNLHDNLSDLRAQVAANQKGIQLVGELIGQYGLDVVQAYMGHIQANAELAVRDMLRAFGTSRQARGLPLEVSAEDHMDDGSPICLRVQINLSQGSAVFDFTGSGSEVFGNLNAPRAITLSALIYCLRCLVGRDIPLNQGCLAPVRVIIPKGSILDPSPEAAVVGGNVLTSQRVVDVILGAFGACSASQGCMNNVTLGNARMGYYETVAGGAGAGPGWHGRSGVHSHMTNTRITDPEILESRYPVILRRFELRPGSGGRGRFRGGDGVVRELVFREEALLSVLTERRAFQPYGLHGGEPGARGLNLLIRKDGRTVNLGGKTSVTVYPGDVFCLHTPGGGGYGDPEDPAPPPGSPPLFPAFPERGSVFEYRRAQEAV

oxoprolinase [4] = target: T3, oxoprolinase (Homo sapiens, UniProt O14841); experiment: 13C-OTC breath test, metabolic rate index with and without acetaminophen; type: in vivo; conditions: for Metabolic Rate Index, ACE+: 2 gm acetaminophen one hour prior to OTC; for Metabolic Rate Index, BASAL: oral 13C-OTC 1.5 mg/kg alone
T3 construct: Seven healthy volunteers (ages 22-39) each participated in two studies; from tissue; host or cells: whole body of human volunteers (oral dose, breath test)
T3 sequence (O14841 1-1288): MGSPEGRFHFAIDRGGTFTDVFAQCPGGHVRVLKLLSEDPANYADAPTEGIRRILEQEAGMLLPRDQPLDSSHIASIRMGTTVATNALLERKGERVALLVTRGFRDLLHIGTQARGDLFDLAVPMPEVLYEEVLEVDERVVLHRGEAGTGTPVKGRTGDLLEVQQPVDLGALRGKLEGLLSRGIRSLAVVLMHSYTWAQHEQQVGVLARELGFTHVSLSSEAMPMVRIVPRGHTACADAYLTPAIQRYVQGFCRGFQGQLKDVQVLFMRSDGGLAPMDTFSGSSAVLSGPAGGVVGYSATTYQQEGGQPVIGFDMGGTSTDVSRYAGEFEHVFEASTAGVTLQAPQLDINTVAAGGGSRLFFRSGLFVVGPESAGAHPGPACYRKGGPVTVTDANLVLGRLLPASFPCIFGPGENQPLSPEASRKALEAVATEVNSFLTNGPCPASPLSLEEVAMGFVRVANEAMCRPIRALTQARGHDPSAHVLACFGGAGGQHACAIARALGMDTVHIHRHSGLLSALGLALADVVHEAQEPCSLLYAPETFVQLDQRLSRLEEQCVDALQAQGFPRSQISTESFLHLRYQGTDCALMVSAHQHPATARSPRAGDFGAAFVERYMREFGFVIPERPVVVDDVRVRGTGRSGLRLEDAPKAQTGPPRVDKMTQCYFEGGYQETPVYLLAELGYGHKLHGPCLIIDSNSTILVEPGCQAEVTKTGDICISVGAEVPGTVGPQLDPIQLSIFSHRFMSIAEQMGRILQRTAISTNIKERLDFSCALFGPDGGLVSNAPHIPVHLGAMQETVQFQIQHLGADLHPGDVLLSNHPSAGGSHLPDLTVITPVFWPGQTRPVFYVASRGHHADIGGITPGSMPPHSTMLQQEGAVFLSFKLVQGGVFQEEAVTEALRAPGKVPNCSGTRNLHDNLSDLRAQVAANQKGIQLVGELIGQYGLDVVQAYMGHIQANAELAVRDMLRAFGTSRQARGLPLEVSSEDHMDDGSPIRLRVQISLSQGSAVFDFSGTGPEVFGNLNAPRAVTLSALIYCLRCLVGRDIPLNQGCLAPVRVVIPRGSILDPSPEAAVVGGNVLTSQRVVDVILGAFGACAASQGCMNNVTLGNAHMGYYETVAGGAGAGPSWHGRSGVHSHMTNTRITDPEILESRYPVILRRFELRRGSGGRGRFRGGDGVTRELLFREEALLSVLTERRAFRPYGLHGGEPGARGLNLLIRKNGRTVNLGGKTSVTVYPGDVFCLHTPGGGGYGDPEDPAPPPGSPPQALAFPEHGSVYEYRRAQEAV
Method: Seven healthy volunteers (ages 22-39) each participated in two studies. After three days on a weight maintaining diet, each participant was given a drink containing ^13C-labelled OTC (1.5 mg/kg), following which blood and expired breath were sampled frequently. In the first test, each participant received the OTC alone. In the second study at least one week later, each participant ingested 2 gm acetaminophen one hour prior to the OTC drink. Expired breath samples were analyzed for the ^13C enrichment (APE) of CO2, and expressed as isotopic enrichment in atom per cent excess (APE×1000) versus time, in the usual manner and in accordance with the general protocol described in Example I. A second panel of probands (ages 53-73) were tested in a similar manner.
From the pattern of label enrichment, at least two types of kinetic processes are apparent, one is absorption, since the metaprobe was dispensed orally, and the other disposition.
Deconvolution of this model by equation transformation and coefficient matching (Wagner, 1993) afforded separate kinetic measurements for the post absorptive metabolism of OTC in the metabolic compartment, and this was expressed as a fractional catabolic rate (Lassen and Perl, 1979). Lastly, the per cent of metaprobe dose recovered in breath was computed from the cumulative integral of the ^13CO2 enrichment versus time plot multiplied by the CO2 production rate for each proband, which in these experiments were measured by indirect calorimetry (but can also be estimated from formulas that have been proven to correlate an individual's height, weight, age and gender with CO2 production). The metabolic index for OTC utilization by oxoprolinase was then computed by the simple expedient of multiplying the dose of metaprobe by the per cent recovery and then by the fractional catabolic rate.
The data from the validating trial in this Example III all corroborate the biochemical hypothesis concerning the OTC metaprobe's mode of action as an indicator of oxoprolinase activity and, therefore, its utility as a surrogate indicator for glutathione production capacity. The results, which are expressed in terms of nanomoles of OTC metabolized per kilogram body weight per minute for the basal condition (BASAL), post acetaminophen (ACE+), and the stimulatory difference between ACE+ and BASAL (STIM) are shown in Table 5.

| Structure (SMILES) | Metabolic Response Index (MRI), BASAL [1] | LI, load tolerance index (BASAL minus MET+) [2] | action on oxoproline hydrolysis by oxoprolinase (oxoprolinase [3]) | Metabolic Rate Index, ACE+ (oxoprolinase [4]; ALL (22-73 yrs., n = 12)) [nmol/kg/min] | Metabolic Rate Index, ACE+ (oxoprolinase [4]; OLD (53-73 yrs., n = 5)) [nmol/kg/min] | Metabolic Rate Index, ACE+ (oxoprolinase [4]; YOUNG (22-39 yrs., n = 7)) [nmol/kg/min] | Metabolic Rate Index, STIM (difference between ACE+ and BASAL) (oxoprolinase [4]; ALL (22-73 yrs., n = 12)) [nmol/kg/min] | Metabolic Rate Index, STIM (difference between ACE+ and BASAL) (oxoprolinase [4]; OLD (53-73 yrs., n = 5)) [nmol/kg/min] | Metabolic Rate Index, STIM (difference between ACE+ and BASAL) (oxoprolinase [4]; YOUNG (22-39 yrs., n = 7)) [nmol/kg/min] | Metabolic Rate Index, BASAL (oxoprolinase [4]; ALL (22-73 yrs., n = 12)) [nmol/kg/min] | Metabolic Rate Index, BASAL (oxoprolinase [4]; OLD (53-73 yrs., n = 5)) [nmol/kg/min] | Metabolic Rate Index, BASAL (oxoprolinase [4]; YOUNG (22-39 yrs., n = 7)) [nmol/kg/min] |
| --- | --- | --- | --- | --- | --- | --- | --- | --- | --- | --- | --- | --- |
| CCOC(=O)[C@@H]1CCSC(=O)N1 [Homocysteine Metaprobe, L-2-oxo-tetrahydro-1,3-thiazine-4-carboxylic acid ethyl ester] | 85 +/− 14 (n = 4) MicroMol/kg/hr. | 57 +/− 24 (n = 4) MicroMol/kg/hr. |  |  |  |  |  |  |  |  |  |  |
| O=C(O)[C@@H]1CS[13C](=O)N1 [OTC, L-2-oxo[^13C]thiazolidine-4-carboxylic acid] |  |  | competitive inhibitor of oxoproline hydrolysis | 515 ± 227 | 452 ± 161 | 547 ± 269 | 208 ± 82 | 117 ± 40 | 261 ± 115 | 307 ± 108 | 335 ± 110 | 286 ± 111 |
